Data set [1] in a line: Ionisation constants by potentiometric titration. The data set is classed as physicochemical. The note with it: function NH^+/N (pyrimidine motif); pKa in water, NaCl 0.15M, obtained from the solvent pKa by a polynomial function; read-out: pKa expérimental. How it is done: Les constantes d'ionisation sont déterminées expérimentalement par titrage potentiométrique suivant les conditions opératoires décrites ci-dessous et évaluées par le logiciel de prédiction ACD/pK DB, Version 5.12.
Conditions opératoires du titrage potentiométrique • Matériel utilisé : (Radiometer-Tacussel) : • titrateur TIM 900 • passeur d'échantillons SAC 90 • logiciel Tim Talk 9 • - Prise d'essai : 10^-4 mole • - Mise en solution : (solubilisation avec passeur d'échantillons) • 5 ml du mélange DMSO 70 / Ethanol 10 / Eau 20 (agitation 3 minutes avec barbotage d'azote) • 10 ml d'une solution de NaCl 0.225M dans eau 80 / DMSO 20 (agitation 3 minutes avec barbotage d'azote) • - Méthode de titrage : • Etalonnage de l'électrode entre pH4 et pH10 • Titrage direct par NaOH 1N ou après ajout d'HCl 1N • Détection d'inflexion avec ajout continu du titrant • vitesse d'addition mini : 1%/min • vitesse d'addition maxi : 1%/min • Flux d'azote à la surface de la solution pendant le titrage • - Calculs : • 2 fonctions polynomiales sont utilisées pour obtenir le pKa dans l'eau en milieu NaCl 0.15M : • pour les fonctions acides : pKaH2O = -0,0208(pKasolvant)^2 + 1,257pKasolvant - 1,6 • pour les fonctions basiques :pKaH2O = -0,0208(pKasolvant)^2 + 1,257pKasolvant - 0,75

The subject of the next data set is Staphylococcus aureus. Nature of the data set: Minimal inhibitory concentration (CMI), Alamar Blue broth method. Format: cell-based. To be noted: ATCC6538, ATCC #6538, lowest concentration with growth inhibition ≥ 90%, 16 h contact at 37°C, read-out: CMI S.aureus. The source says:
(§1) La méthode de détermination de l'activité anti-microbienne des composés selon l'invention fait intervenir la mesure de la Concentration Minimale Inhibitrice (CMI) vis-à-vis de 2 bactéries gram- (E. coli et P. aeruginosa), d'une bactérie gram+ (S. aureus) et d'une levure (C. albicans). Cette méthode a été effectuée selon la méthode décrite dans les articles suivants: - Baker C.N., Banerjee S.N. and Tenover F.C. : Evaluation of Alamar colorimetric MIC Method for antimicrobial susceptibility testing of gram-negative bacteria. J. Clin. Microbiol. (1994), 32, 1261-1267; - Baker C.N. and Tenover F.C. : Evaluation of Alamar colorimetric broth microdilution susceptibility testing method for staphylococci and enterococci. J. Clin. Microbiol. (1996), 34, 2654-2659. Les souches bactériennes utilisées au départ sous forme de disques lyophilisés calibrés sont réhydratées en suivant les indications du fournisseur (Fisher Scientific S.A.)
(§2) Les souches sont ensemencées dans du milieu Trypto-caseine-soja. La mise en contact du composé à tester solubilisé dans l'eau, avec les souches en phase de croissance s'effectue en milieu liquide. Après 16 heures de contact du composé avec les bactéries (37°C), de l'Alamar Blue est ajouté comme indicateur métabolique de la viabilité de cellules variées et de bactéries. La réduction de l'indication est proportionnelle à l'activité métabolique des bactéries. A l'issue de l'incubation d'une durée de 2h (sauf pour C. albicans pour laquelle l'incubation est de 4h), l'activité métabolique des bactéries est évaluée par une lecture en absorbance ou en fluorescence. En fluorescence, les lectures sont réalisées à 544nm (Excitation) et à 590nm (Emission). Les composés les plus actifs sont sélectionnés et un effet dose (8 concentrations) est ensuite réalisé comme précédemment. La Concentration Minimale Inhibitrice (C.M.I.) a alors été déterminée comme étant la concentration la plus faible du composé testé pour laquelle était observée une inhibition de croissance de la bactérie ou de la levure ≥ 90%.
On the technique in general: Alamar Blue is a resazurin reagent that responds to reducing activity.

Data set [2] relates to Candida albicans. The description is as above. Format: cell-based. The note with it: ATCC10231, ATCC #10231, lowest concentration with growth inhibition ≥ 90%, 16 h contact at 37°C.
Excerpt: as §1, §2

Data set [3] deals with Pseudomonas aeruginosa. The data set is described as above. To be noted: ATCC9027, ATCC #9027, lowest concentration with growth inhibition ≥ 90%, 16 h contact at 37°C, read-out: CMI P.aeruginosa. Format: cell-based.
Excerpt: as §1, §2

For data set [4], the system named is Escherichia coli. The data set is described as above. The note with it: ATCC8739, ATCC #8739, lowest concentration with growth inhibition ≥ 90%, 16 h contact at 37°C, read-out: CMI E.coli. Format: cell-based.
Excerpt: as §1, §2

In data set [5] the test system is Candida albicans. Nature of the data set: Challenge test (artificial contamination) in cosmetic supports. Format: cell-based. To be noted: inoculum about 10^6 germes/gramme, sensitivity threshold 200 UFC. The source says: (§3) La mesure de la Concentration Minimale Inhibitrice (C.M.I.) développée ci-dessus ne peut être utilisée avec fiabilité pour les moisissures; or les moisissures peuvent également poser de graves problèmes dans la conservation des produits cosmétiques. En sachant que l'activité d'un composé diminue lorsqu'il est introduit dans une formule et que la méthode de la CMI se fait après dilution du composé dans l'eau, l'efficacité anti-microbienne des composés de formule (I) a été évaluée par la méthode du Challenge Test ou contamination artificielle après avoir introduit lesdits composés dans des supports cosmétiques (lotion, émulsions huile-dans-eau et eau-dans-huile). La méthode du challenge-test consiste en une contamination artificielle de l'échantillon par des souches microbiennes de collection (bactéries, levures et moisissures) et en une évaluation du nombre de micro-organismes revivifiables sept jours après l'inoculation. Afin de mettre en évidence l'effet d'un composé de formule (I), l'activité anti-microbienne d'une formule cosmétique contenant 0.25% de 4 methyl-pipéridine-1-yl-pyrimidine-2-ylamine a été comparée avec la même formule seule, après inoculation d'environ 10^6 germes/gramme de produit cosmétique.

The subject of data set [6] is Pseudomonas aeruginosa. Described as above. Format: cell-based. To be noted: inoculum about 10^6 germes/gramme, sensitivity threshold 200 UFC.
Excerpt: as §3

The next data set deals with Aspergillus niger. Described as above. Format: cell-based. To be noted: inoculum about 10^6 germes/gramme, sensitivity threshold 200 UFC.
Excerpt: as §3

In data set [7] the test system is Escherichia coli. The description is as above. The data set is classed as cell-based. To be noted: inoculum about 10^6 germes/gramme, sensitivity threshold 200 UFC.
Excerpt: as §3

The test system of another data set is Enterococcus faecalis. The description is as above. Format: cell-based. To be noted: inoculum about 10^6 germes/gramme, sensitivity threshold 200 UFC.
Excerpt: as §3

Where [8] appears, read: Emulsion démaquillante huile dans eau + 0.25% compound.
[9] abbreviates: Emulsion eau dans huile + 0.250% compound.

One molecule from EP1437348A1, “6-methyl-2,4-diamino-pyrimidine derivatives, process for preparation, compositions containing them and their uses as basic neutralising agents” (L'OREAL, priority 2003, dated 2004) can be followed below.

In brackets after ≈: the same amount, converted by molar mass.

For `Cc1cc(N2CCCCC2)nc(N)n1` [Composé M, 4-methyl-6-pipéridine-1-yl-pyrimidine-2-ylamine], the pKa in data set [1] is 8.35. The MIC with Staphylococcus aureus worked out at 5000 µg/mL (≈ 26 mM); against Candida albicans [2], 625 µg/mL (≈ 3.25 mM); in the data set with Pseudomonas aeruginosa [3], 5000 µg/mL (≈ 26 mM); in the data set with Escherichia coli [4], 5000 µg/mL (≈ 26 mM). Moreover, the “Nombre d'UFC / gramme de produit après 7 jours de contact germes / produit” value in the data set on Candida albicans [5] (setting [8]), in the data set with Candida albicans [5] (setting [9]), in the data set with Candida albicans [5] (Lotion + 0.25% compound), in the data set on Pseudomonas aeruginosa [6] (setting [8]), with Pseudomonas aeruginosa [6] (setting [9]) and in the data set with Pseudomonas aeruginosa [6] (Lotion + 0.25% compound) was less than 200 UFC / gramme de produit throughout. Further, the “Nombre d'UFC / gramme de produit après 7 jours de contact germes / produit” value with Aspergillus niger (setting [9]) is listed as 400 UFC / gramme de produit; in the data set with Aspergillus niger (Lotion + 0.25% compound), 400 UFC / gramme de produit; with Escherichia coli [7] (setting [8]) it was <200^2 UFC / gramme de produit; in the data set on Escherichia coli [7] (setting [9]) it was <200^2 UFC / gramme de produit; in the data set on Escherichia coli [7] (Lotion + 0.25% compound) it was <200^2 UFC / gramme de produit; in the data set on Enterococcus faecalis (setting [8]), less than 200 UFC / gramme de produit. Moreover, the “Nombre d'UFC / gramme de produit après 7 jours de contact germes / produit” value with Enterococcus faecalis (Lotion + 0.25% compound) turned out to be 400 UFC / gramme de produit.

What is called pKa is the negative logarithm of the acid dissociation constant.
